Results from PubChem BioAssay (NCI).
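96-well plates; 48 h exposure; 5 concentrations. Endpoints by linear interpolation between flanking doses. Not reached: highest tested concentration assigned. GI50 marks 50% less growth. TGI is the concentration that stops growth completely.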

What was measured:
Test in all cases: DTP human tumour cell line panel, 48 h
ACHN renal = test system: ACHN renal
MCF7 breast = test system: MCF7 breast
UO-31 renal = test system: UO-31 renal
OVCAR-4 ovarian = test system: OVCAR-4 ovarian
SNB-75 CNS = test system: SNB-75 CNS
IGROV1 ovarian = test system: IGROV1 ovarian
HT29 colon = test system: HT29 colon
TK-10 renal = test system: TK-10 renal
BT-549 breast = test system: BT-549 breast
MDA-MB-231 breast = test system: MDA-MB-231 breast
T-47D breast = test system: T-47D breast
LOX IMVI melanoma = test system: LOX IMVI melanoma
SF-539 CNS = test system: SF-539 CNS
MALME-3M melanoma = test system: MALME-3M melanoma
CCRF-CEM leukemia = test system: CCRF-CEM leukemia
PC-3 prostate = test system: PC-3 prostate
NCI-H23 lung = test system: NCI-H23 lung
U251 CNS = test system: U251 CNS
M14 melanoma = test system: M14 melanoma
EKVX NSCLC = test system: EKVX NSCLC
MOLT-4 leukemia = test system: MOLT-4 leukemia
SNB-19 CNS = test system: SNB-19 CNS
NCI-H460 lung = test system: NCI-H460 lung
SF-295 CNS = test system: SF-295 CNS
MDA-MB-435 = test system: MDA-MB-435
HCC-2998 colon = test system: HCC-2998 colon
OVCAR-8 ovarian = test system: OVCAR-8 ovarian
NCI-H522 lung = test system: NCI-H522 lung
SK-MEL-28 melanoma = test system: SK-MEL-28 melanoma
UACC-62 melanoma = test system: UACC-62 melanoma
NCI-H226 lung = test system: NCI-H226 lung
HCT-116 colon = test system: HCT-116 colon
SK-MEL-2 melanoma = test system: SK-MEL-2 melanoma
NCI/ADR-RES ovarian = test system: NCI/ADR-RES ovarian
HCT-15 colon = test system: HCT-15 colon
COLO 205 colon = test system: COLO 205 colon
HOP-92 NSCLC = test system: HOP-92 NSCLC
RXF 393 renal = test system: RXF 393 renal
K-562 leukemia = test system: K-562 leukemia
SW-620 colon = test system: SW-620 colon
786-0 renal = test system: 786-0 renal
KM12 colon = test system: KM12 colon
SK-MEL-5 melanoma = test system: SK-MEL-5 melanoma
DU-145 prostate = test system: DU-145 prostate
HS 578T breast = test system: HS 578T breast
OVCAR-3 ovarian = test system: OVCAR-3 ovarian
SN12C renal = test system: SN12C renal
A498 renal = test system: A498 renal
HOP-62 NSCLC = test system: HOP-62 NSCLC
HL-60(TB) leukemia = test system: HL-60(TB) leukemia
A549 NSCLC = test system: A549 NSCLC
SK-OV-3 ovarian = test system: SK-OV-3 ovarian
UACC-257 melanoma = test system: UACC-257 melanoma
OVCAR-5 ovarian = test system: OVCAR-5 ovarian
RPMI-8226 leukemia = test system: RPMI-8226 leukemia
SF-268 CNS = test system: SF-268 CNS

CC(=O)c1cc2c(c(O)c1C)C(=O)C(=O)c1c(O)cccc1-2
GI50 (ACHN renal): 289 nM
TGI (ACHN renal): 1120 nM
GI50 (MCF7 breast): 57.6 nM
TGI (MCF7 breast): 134 nM
GI50 (UO-31 renal): 247 nM
TGI (UO-31 renal): 742 nM
GI50 (OVCAR-4 ovarian): 199 nM
TGI (OVCAR-4 ovarian): 636 nM
GI50 (SNB-75 CNS): 153 nM
TGI (SNB-75 CNS): 301 nM
GI50 (IGROV1 ovarian): 521 nM
TGI (IGROV1 ovarian): 1340 nM
GI50 (HT29 colon): 319 nM
TGI (HT29 colon): 1490 nM
GI50 (TK-10 renal): 560 nM
TGI (TK-10 renal): 1010 nM
GI50 (BT-549 breast): 140 nM
TGI (BT-549 breast): 274 nM
GI50 (MDA-MB-231 breast): 277 nM
TGI (MDA-MB-231 breast): 2260 nM
GI50 (T-47D breast): 554 nM
TGI (T-47D breast): 3170 nM
GI50 (LOX IMVI melanoma): 53.9 nM
TGI (LOX IMVI melanoma): 101 nM
GI50 (SF-539 CNS): 150 nM
TGI (SF-539 CNS): 285 nM
GI50 (MALME-3M melanoma): 65.4 nM
TGI (MALME-3M melanoma): 139 nM
GI50 (CCRF-CEM leukemia): 460 nM
TGI (CCRF-CEM leukemia): > 100000 nM
GI50 (PC-3 prostate): 510 nM
TGI (PC-3 prostate): 2030 nM
GI50 (NCI-H23 lung): 66.6 nM
TGI (NCI-H23 lung): 154 nM
GI50 (U251 CNS): 247 nM
TGI (U251 CNS): 659 nM
GI50 (M14 melanoma): 60.5 nM
TGI (M14 melanoma): 121 nM
GI50 (EKVX NSCLC): 673 nM
TGI (EKVX NSCLC): 3360 nM
GI50 (MOLT-4 leukemia): 348 nM
TGI (MOLT-4 leukemia): 1440 nM
GI50 (SNB-19 CNS): 163 nM
TGI (SNB-19 CNS): 345 nM
GI50 (NCI-H460 lung): 460 nM
TGI (NCI-H460 lung): 1090 nM
GI50 (SF-295 CNS): 290 nM
TGI (SF-295 CNS): 763 nM
GI50 (MDA-MB-435): 56.3 nM
TGI (MDA-MB-435): 107 nM
GI50 (HCC-2998 colon): 330 nM
TGI (HCC-2998 colon): 776 nM
GI50 (OVCAR-8 ovarian): 308 nM
TGI (OVCAR-8 ovarian): 936 nM
GI50 (NCI-H522 lung): 281 nM
TGI (NCI-H522 lung): 888 nM
GI50 (SK-MEL-28 melanoma): 163 nM
TGI (SK-MEL-28 melanoma): 365 nM
GI50 (UACC-62 melanoma): 164 nM
TGI (UACC-62 melanoma): 354 nM
GI50 (NCI-H226 lung): 554 nM
TGI (NCI-H226 lung): 1050 nM
GI50 (HCT-116 colon): 216 nM
TGI (HCT-116 colon): 506 nM
GI50 (SK-MEL-2 melanoma): 272 nM
TGI (SK-MEL-2 melanoma): 922 nM
GI50 (NCI/ADR-RES ovarian): 360 nM
TGI (NCI/ADR-RES ovarian): 1390 nM
GI50 (HCT-15 colon): 113 nM
TGI (HCT-15 colon): 302 nM
GI50 (COLO 205 colon): 342 nM
TGI (COLO 205 colon): 872 nM
GI50 (HOP-92 NSCLC): 906 nM
TGI (HOP-92 NSCLC): 1880 nM
GI50 (RXF 393 renal): 157 nM
TGI (RXF 393 renal): 416 nM
GI50 (K-562 leukemia): 281 nM
TGI (K-562 leukemia): 1050 nM
GI50 (SW-620 colon): 120 nM
TGI (SW-620 colon): 387 nM
GI50 (786-0 renal): 421 nM
TGI (786-0 renal): 897 nM
GI50 (KM12 colon): 411 nM
TGI (KM12 colon): 1740 nM
GI50 (SK-MEL-5 melanoma): 56.5 nM
TGI (SK-MEL-5 melanoma): 105 nM
GI50 (DU-145 prostate): 56.8 nM
TGI (DU-145 prostate): 102 nM
GI50 (HS 578T breast): 248 nM
TGI (HS 578T breast): 1300 nM
GI50 (OVCAR-3 ovarian): 76.8 nM
TGI (OVCAR-3 ovarian): 280 nM
GI50 (SN12C renal): 59.2 nM
TGI (SN12C renal): 117 nM
GI50 (A498 renal): 962 nM
TGI (A498 renal): 2380 nM
GI50 (HOP-62 NSCLC): 175 nM
TGI (HOP-62 NSCLC): 365 nM
GI50 (HL-60(TB) leukemia): 89.5 nM
TGI (HL-60(TB) leukemia): 271 nM
GI50 (A549 NSCLC): 565 nM
TGI (A549 NSCLC): 1240 nM
GI50 (SK-OV-3 ovarian): 565 nM
TGI (SK-OV-3 ovarian): 1120 nM
GI50 (UACC-257 melanoma): 188 nM
TGI (UACC-257 melanoma): 366 nM
GI50 (OVCAR-5 ovarian): 526 nM
TGI (OVCAR-5 ovarian): 1010 nM
GI50 (RPMI-8226 leukemia): 615 nM
TGI (RPMI-8226 leukemia): 1900 nM
GI50 (SF-268 CNS): 133 nM
TGI (SF-268 CNS): 471 nM
